# Measured values taken from patent US8507724B2 (priority 2008, dated 2013).
# Values joined by “and” are separate entries in the source; they are usually repeats but may differ in a detail not shown here. Identical values can stand only once. Like-named read-outs stand apart in the source and are kept apart here.
# What was measured:
# [1] = biological target: T1, α1 homomeric glycine receptors (Rattus norvegicus, UniProt P07727); test: Whole-cell patch-clamp, Cl- current activated via α1 homomeric glycine receptors in transfected HEK 293 cells; assay type: cell-based
# T1 construct: expressed in transfected cells; host or cells: HEK 293 (transient transfection by electroporation, cDNA in pCIS2 vector)
# T1 sequence (P07727 29-457): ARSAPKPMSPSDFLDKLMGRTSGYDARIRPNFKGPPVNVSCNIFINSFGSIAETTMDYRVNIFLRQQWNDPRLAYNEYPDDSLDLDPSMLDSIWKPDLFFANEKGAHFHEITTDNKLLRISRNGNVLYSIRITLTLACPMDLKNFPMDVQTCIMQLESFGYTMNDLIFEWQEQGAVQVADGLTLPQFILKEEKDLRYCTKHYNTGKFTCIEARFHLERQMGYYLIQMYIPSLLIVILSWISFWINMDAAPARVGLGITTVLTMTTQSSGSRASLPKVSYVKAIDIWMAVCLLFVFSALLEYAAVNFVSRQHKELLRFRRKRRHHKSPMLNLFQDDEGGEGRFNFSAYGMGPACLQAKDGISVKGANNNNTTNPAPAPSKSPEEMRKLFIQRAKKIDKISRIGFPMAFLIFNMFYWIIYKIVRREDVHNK
# Method: Cells were cultured in Dulbecco's modified Eagle's medium (DMEM, Biochrom, Berlin, Germany), supplemented with 10% fetal calf serum (FCS, Biochrom, Berlin, Germany), 100 U ml^−1 penicillin and 100 μg ml^−1 streptomycin at 37° C. in a 5% CO2/air incubator. […] For co-transfection of rat α1 glycine receptor subunits, the corresponding cDNA, each subcloned in the pCIS2 expression vector (Invitrogen, San Diego, USA), was added to the suspension. To visualize transfected cells, they were co-transfected with cDNA of green fluorescent protein (GFP 10 μg ml^−1). For transfection, we used an electroporation device by EquiBio (Kent, UK).
# The compounds according to the present invention under investigation were prepared as 1 M stock solution in ethanol, light-protected and stored in glass vessels at −20° C. Concentrations were calculated from the amount injected into the glass vials. Drug-containing vials were vigorously vortexed for 60 min. Glycine and picrotoxin were dissolved directly in bath solution.
# Patch electrodes contained [mM] KCl 140, MgCl2 2, EGTA 11, HEPES 10, glucose 10; the bath solution contained [mM]
# A tight electrical seal of several GΩ formed between the cell membrane and a patch-clamp electrode allows inward currents due to agonist-induced channel activation to resolve in the pA range. Electrical resistance of the pipettes was around 5 MΩ, corresponding to a total access resistance in the whole-cell configuration of about 10 MΩ. The compounds according to the present invention under investigation were applied to the cells via a smooth liquid filament achieved with a single outflow (glass tubing 0.15 mm inner diameter) connected to a piezo crystal. The cells were placed at the interface between this filament and the continuously flowing background solution. When a voltage pulse was applied to the piezo, the tube was moved up and down onto or away from the cell under investigation. Correct positioning of the cell in respect to the liquid filament was ensured applying a saturating (1000 μM) glycine pulse before and after each test experiment. Care was taken to ensure that the amplitude and the shape of the glycine-activated current had stabilized before proceeding with the experiment. Test solution and glycine (1000 μM) were applied via the same glass-polytetrafluoroethylen perfusion system, but from separate reservoirs. The contents of these reservoirs were mixed at a junction immediately before entering the superfusion chamber.
# The compounds under test were applied alone in order to determine their direct agonistic effects. A new cell was used for each compound and each protocol, at least three different experiments were performed for each setting. The amount of the diluent ethanol corresponding to the highest compound concentration used was 34 000 μM.
# For data acquisition and further analysis the inventors used the Axopatch 200B amplifier in combination with pClamp6 software (Axon Instruments, Union City, Calif., USA). Currents were filtered at 2 kHz. Fitting procedures were performed using a non-linear least-squares Marquardt-Levenberg algorithm. Details are provided in the appropriate figure legends or in the results section.
# Activated currents were normalized to their own maximum response. The dose-response-curves were fitted according to (Inorm=[1+(EC50/[C])^nH]^−1), where Inorm is the current induced directly by the respective concentration [C] of the compound, normalized to the maximum inward current.
# in vivo = assay type: in vivo; conditions: rat; for Tmax: read-out: tmax (converted); for half-life: mean n=3, read-out: t1/2
# Method: […] Whole blood samples were taken from a lateral tail vein for plasma separation at time points 0 min, 30 min, 1 h, 2 h and 4 h after p.o. dosing; and 0 min, 15 min, 30 min, 1 h, and 2 h after i.v. dosing, while the terminal samples at time point 6 h after dosing (p.o and Lv.) were taken by cardiac puncture. All time points were taken from a single rat, and all experiments were carried out in triplicate.
# The samples were thawn at room temperature and prepared by protein precipitation with ratio 1:2 of plasma and acetonitrile and were centrifuged 10 minutes at 16 100×g (Eppendorf 5415D, Eppendorf AG, Hamburg, Germany) before injection to UPLCIMSMS system. The standard samples were prepared similarly, after spiking blank plasma samples to 0.5, 2, 5, 10, 20, 50, 200, 500, 1000 and 2000 ng/ml of the analyte compounds.
# The pharmacokinetic parameters for study compounds were calculated by WinNonlin Pro (Pharsight Corp, CA) using standard noncompartmental methods. The volume of distribution (Vd) was based on the terminal phase. The elimination phase half-life (t1/2) was calculated by least-squares regression analysis of the terminal linear part of the log concentration-time curve. The area under the plasma concentration-time curve (AUC) was determined by use of the linear trapezoidal rule up to the last measurable concentration and thereafter by extrapolation of the terminal elimination phase to infinity. The area under the plasma concentration-time curve without terminal extrapolation is reported as AUC 0-6 h. The mean residence time (MRT) representing the average amount of time a compound remains in a compartment or system was calculated extrapolating the drug concentration profile to infinity. The maximum plasma concentration (cmax) and the time to cmax (tmax) were derived directly from the plasma concentration data. The tentative oral bioavailability (F) was calculated by dividing the AUC after p.o. administration by the AUC after i.v. administration taking into account the differences in dose, i.e. F=AUC(p.o.)/Dose(p.o.)/AUC(i.v)/[…], and reported as percentages (%).
# A Waters Acquity chromatographic system (Waters Corp., Milford, Mass., USA) with autosampler, vacuum degasser and column oven was used. The analytical column used for all compounds was a Waters BEH ShieldRP18, (2.1×50 mm, 1.7 μm, Waters Corp, Milford, Mass., USA) together with an on-line filter. The eluents were 0.1% acetic acid (A, pH 3.2) and acetonitrile (B). A linear gradient elution from 5% B to 35% B in 0-2 minutes, from 35% B to 85% B in 2.0-3.0 min was employed, followed by 1 min isocratic elution with […] and column equilibration. The flow rate was 0.5 ml/min and the column oven temperature was 35° C. LC/MS/MS/data was acquired with a Micromass Quattro Premier triple quadrupole mass spectrometer equipped with a LockSpray electrospray ionization source. A negative ion mode ionisation was used. The multiple reaction monitoring (MRM) mode of detection was used. The mass spectrometer and UPLC system were operated under Micromass MassLynx 4.1 software. Complete LC/MS/MS parameters are presented in Appendix I.
# Detection/quantitation limits between 2 ng/ml and 10 ng/ml in plasma were obtained for each compound. Calibration curves for quantification were generated by fitting the ratio of the external standard peak areas as a function of the concentration, excluding the point of origin and using 1/x weighting and linear or quadratic fitting. The ranges up to 2000 ng/ml were fitted for calibration curves. […] The overall precisions 12.0-17.0% were calculated from the standard samples (two injection/concentration), using Snedecor equation S=(Σd^2/2n)^0.5, in which S=precision, d is the difference between duplicates expressed as % of the mean value, and N is the number of standard concentration. The concentrations of each study compound in the samples are shown in the Appendices IV-VI.
# [2] = EC50 (nM), α1 homomer, initial tests, Hill fit to normalised response, rat α1 receptors in HEK 293
# [3] = initial tests, Hill fit to normalised response
# [4] = plasma, iv, i.v. 1 mg/kg, mean n=3
# [5] = 1 mg/kg i.v., individual animals, 1 mg/kg
# [6] = 8 mg/kg p.o., individual animals, 8 mg/kg
structure (smiles),measurement,setting,value
CC(C)c1cc(-c2ccc(-c3ccccc3)cc2)cc(C(C)C)c1O [4-(p-biphenyl)-propofol],EC50,[1]; [2],0.8 ± 0.2 nM
same,"nH (Hill coefficient), α1 homomer",[1]; [3],2.6 ± 1.2
CC(C)c1cc(-c2ccc(C(C)(C)C)cc2)cc(C(C)C)c1O [4-(p-tert-butylphenyl)-propofol],EC50,[1]; [2],0.05 ± 0.03 nM
same,"nH (Hill coefficient), α1 homomer",[1]; [3],2.0 ± 0.4
"CC(C)c1cc(Cl)cc(C(C)C)c1O [4-Cl-propofol, 4-Chloropropofol]",clearance,in vivo; [4],148 mL/min/kg
same,Tmax,in vivo; [4],15 min
same,bioavailability,"in vivo; plasma, oral, 8 mg/kg p.o. vs 1 mg/kg i.v., read-out: F (%) tentative oral bioavailability",72.4%
same,Tmax,"in vivo; plasma, po, p.o. 8 mg/kg, mean n=3",30 min
same,tmax,"in vivo; 1 mg/kg i.v., individual animals",15 min
same,AUC,in vivo; [5],10.7 µg·min/mL and 5.43 µg·min/mL and 6.01 µg·min/mL
same,CL/F,in vivo; [5],93.2 mL/min/kg and 184 mL/min/kg and 166 mL/min/kg
same,MRT,in vivo; [5],31.8 min and 80.8 min and 33.6 min
same,cmax,in vivo; [5],170 ng/mL and 70 ng/mL and 90 ng/mL
same,t1/2,in vivo; [5],16.3 min and 81.8 min and 48.2 min
same,tmax,"in vivo; 8 mg/kg p.o., individual animals",30 min
same,AUC,in vivo; [6],33.2 µg·min/mL and 34.9 µg·min/mL and 60.4 µg·min/mL
same,CL/F,in vivo; [6],229 mL/min/kg and 133 mL/min/kg
same,MRT,in vivo; [6],305 min and 760 min and 764 min
same,cmax,in vivo; [6],0.12 μg/mL (2×) and 0.05 μg/mL
same,t1/2,in vivo; [6],205 min and 493 min and 496 min
same,ADC 0-6 h,"in vivo; i.v. 1 mg/kg, mean n=3",6.29 µg·min/mL
same,AUC,"in vivo; i.v. 1 mg/kg, mean n=3",7.39 µg·min/mL
same,CL/F,"in vivo; i.v. 1 mg/kg, mean n=3",148 mL/min/kg
same,half life (in words),in vivo; i.v. dosing,intermediate
same,clearance (in words),"in vivo; i.v. dosing, compared to rat liver blood flow",very high
same,concentration in plasma,"in vivo; iv (1 mg/kg), 15 min, individual animals, listed as CK1-1, 1 mg/kg",172 ng/mL and 70.0 ng/mL and 94.3 ng/mL
same,concentration in plasma,"in vivo; iv (1 mg/kg), 30 min, individual animals, listed as CK1-1, 1 mg/kg",26.1 ng/mL and 25.4 ng/mL
same,concentration in plasma,"in vivo; iv (1 mg/kg), 1 h, individual animals, listed as CK1-1, 1 mg/kg",15.2 ng/mL and 16.5 ng/mL
same,concentration in plasma,"in vivo; iv (1 mg/kg), 2 h, individual animals, listed as CK1-1, 1 mg/kg",33.7 ng/mL and 11.5 ng/mL
same,detection in plasma after oral (p.o.) administration,in vivo; p.o.,observed in plasma
same,ADC 0-6 h,"in vivo; p.o. 8 mg/kg, mean n=3",18.7 µg·min/mL
same,AUC,"in vivo; p.o. 8 mg/kg, mean n=3",42.8 µg·min/mL
same,CL,"in vivo; p.o. 8 mg/kg, mean n=3",146 mL/min/kg
same,Vd,"in vivo; p.o. 8 mg/kg, mean n=3",79.6 L/kg
same,MRT,"in vivo; plasma, iv, 1 mg/kg, i.v. 1 mg/kg, mean n=3, read-out: MRT (converted)",48.7 min
same,Vd,"in vivo; plasma, iv, 1 mg/kg, i.v. 1 mg/kg, mean n=3, read-out: Vd",11.8 L/kg
same,cmax,"in vivo; plasma, iv, 1 mg/kg, i.v. 1 mg/kg, mean n=3, read-out: cmax",110 ng/mL
same,half-life,"in vivo; plasma, iv, 1 mg/kg, i.v. 1 mg/kg",48.8 min
same,concentration at 30 min,"in vivo; plasma, iv, 1 mg/kg, iv (1 mg/kg), 30 min, individual animals",47.3 ng/mL
same,concentration at 1 h,"in vivo; plasma, iv, 1 mg/kg, iv (1 mg/kg), 1 h, individual animals",13.2 ng/mL
same,CL/F,"in vivo; plasma, po, 8 mg/kg, 8 mg/kg p.o., individual animals, read-out: CL/F",241 mL/min/kg
same,Vd/F,"in vivo; plasma, po, 8 mg/kg, p.o. 8 mg/kg, mean n=3",110 L/kg
same,CL/F,"in vivo; plasma, po, 8 mg/kg, p.o. 8 mg/kg, mean n=3, read-out: CL/F",201 mL/min/kg
same,MRT,"in vivo; plasma, po, 8 mg/kg, p.o. 8 mg/kg, mean n=3, read-out: MRT (converted)",609 min
same,cmax,"in vivo; plasma, po, 8 mg/kg, p.o. 8 mg/kg, mean n=3, read-out: cmax",100 ng/mL
same,half-life,"in vivo; plasma, po, 8 mg/kg, p.o. 8 mg/kg",398 min
same,concentration at 4 h,"in vivo; plasma, po, 8 mg/kg, po (8 mg/kg), 4 h, individual animals",61.8 ng/mL
same,concentration at 6 h,"in vivo; plasma, po, 8 mg/kg, po (8 mg/kg), 6 h, individual animals",33.8 ng/mL
same,concentration in plasma,"in vivo; po (8 mg/kg), 30 min, individual animals, listed as CK1-1, 8 mg/kg",121 ng/mL and 116 ng/mL and 51.0 ng/mL
same,concentration in plasma,"in vivo; po (8 mg/kg), 1 h, individual animals, listed as CK1-1, 8 mg/kg",99.8 ng/mL and 47.3 ng/mL and 57.2 ng/mL
same,concentration in plasma,"in vivo; po (8 mg/kg), 2 h, individual animals, listed as CK1-1, 8 mg/kg",64.3 ng/mL and 25.3 ng/mL and 52.3 ng/mL
same,concentration in plasma,"in vivo; po (8 mg/kg), 4 h, individual animals, listed as CK1-1, 8 mg/kg",36.1 ng/mL and 55.1 ng/mL
same,concentration in plasma,"in vivo; po (8 mg/kg), 6 h, individual animals, listed as CK1-1, 8 mg/kg",32.0 ng/mL and 55.3 ng/mL
"CC(C)c1cc(NC(=O)C(F)(F)F)cc(C(C)C)c1O [4-trifluoroacetamide-propofol, 4-Trifluoroacetamide-propofol]",EC50,[1]; [2],0.3 nM
same,EC50,"[1]; EC50, further series of tests (later tests)",0.11 nM
